These results are taken from paper PMC7782499, “Progerinin, an optimized progerin-lamin A binding inhibitor, ameliorates premature senescence phenotypes of Hutchinson-Gilford progeria syndrome” (Communications Biology, 2021).

What all share (assay type): in vitro ADME
In one data set the target is CYP2C19 (Homo sapiens, UniProt P33261). Nature of the data set: CYP inhibition, CYP2C19. Here is the method: For PK analysis, 5 mg/kg of JH4 in 10% DMSO, 5% […] solution were intravenously injected and 10 mg/kg of JH4 in 10% NMP and 90% PEG400 solution were orally delivered. At pre-set time-points, blood concentration of JH4 was determined by LC-MS/MS analysis[22],[23]. Other chemicals were also tested using similar protocol. In vitro ADME studies (plasma protein binding, CYP inhibition, microsomal stability, plasma stability, and hERG inhibition) were performed by New Drug Development Center (Daegu, Korea) using standard protocols[24],[25].

The next data set addresses CYP2C9 (Homo sapiens, UniProt P11712). Nature of the data set: CYP inhibition, CYP2C9. The arrangement: unit not given here. Here is the method:
(§1) At pre-set time-points, blood concentration of JH4 was determined by LC-MS/MS analysis[22],[23]. Other chemicals were also tested using similar protocol. In vitro ADME studies (plasma protein binding, CYP inhibition, microsomal stability, plasma stability, and hERG inhibition) were performed by New Drug Development Center (Daegu, Korea) using standard protocols[24],[25].

The next data set has as its target T1, CYP1A2 (Homo sapiens, UniProt P05177).
T1 sequence (P05177 1-516): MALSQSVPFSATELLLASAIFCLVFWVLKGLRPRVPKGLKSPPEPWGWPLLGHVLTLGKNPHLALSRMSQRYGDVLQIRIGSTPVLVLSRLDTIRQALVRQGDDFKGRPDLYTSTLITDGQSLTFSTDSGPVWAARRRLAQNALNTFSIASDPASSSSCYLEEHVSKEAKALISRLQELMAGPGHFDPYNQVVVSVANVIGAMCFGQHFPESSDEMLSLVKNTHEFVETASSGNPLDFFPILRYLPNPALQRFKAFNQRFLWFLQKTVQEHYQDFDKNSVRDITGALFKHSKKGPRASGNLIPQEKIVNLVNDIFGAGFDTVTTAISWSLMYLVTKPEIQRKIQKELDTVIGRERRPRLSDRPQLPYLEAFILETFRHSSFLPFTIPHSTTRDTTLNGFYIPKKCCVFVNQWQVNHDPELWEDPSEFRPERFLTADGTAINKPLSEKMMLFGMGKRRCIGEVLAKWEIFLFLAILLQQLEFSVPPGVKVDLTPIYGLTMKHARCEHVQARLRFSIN
Nature of the data set: CYP inhibition, CYP1A2. Here is the method: as §1

SMILES strings stand for the structures. Several values for one entry are separate records, joined by “and”; a condition that tells them apart may be missing. Equal entries are not always repeated.

Sequence of CYP2C19 (P33261 whole entry): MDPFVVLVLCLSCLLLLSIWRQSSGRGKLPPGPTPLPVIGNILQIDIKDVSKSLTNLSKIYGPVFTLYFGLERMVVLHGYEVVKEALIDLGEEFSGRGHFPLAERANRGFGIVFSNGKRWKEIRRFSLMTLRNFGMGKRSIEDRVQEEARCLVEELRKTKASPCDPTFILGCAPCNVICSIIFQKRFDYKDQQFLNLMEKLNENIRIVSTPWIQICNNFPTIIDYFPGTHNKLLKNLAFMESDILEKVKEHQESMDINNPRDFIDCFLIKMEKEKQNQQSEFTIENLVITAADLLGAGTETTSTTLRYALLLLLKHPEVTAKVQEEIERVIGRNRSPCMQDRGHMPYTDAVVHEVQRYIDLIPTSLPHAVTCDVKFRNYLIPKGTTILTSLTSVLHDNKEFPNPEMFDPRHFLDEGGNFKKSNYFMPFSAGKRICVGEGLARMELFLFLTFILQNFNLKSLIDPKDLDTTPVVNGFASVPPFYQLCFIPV
Sequence of CYP2C9 (P11712 whole entry): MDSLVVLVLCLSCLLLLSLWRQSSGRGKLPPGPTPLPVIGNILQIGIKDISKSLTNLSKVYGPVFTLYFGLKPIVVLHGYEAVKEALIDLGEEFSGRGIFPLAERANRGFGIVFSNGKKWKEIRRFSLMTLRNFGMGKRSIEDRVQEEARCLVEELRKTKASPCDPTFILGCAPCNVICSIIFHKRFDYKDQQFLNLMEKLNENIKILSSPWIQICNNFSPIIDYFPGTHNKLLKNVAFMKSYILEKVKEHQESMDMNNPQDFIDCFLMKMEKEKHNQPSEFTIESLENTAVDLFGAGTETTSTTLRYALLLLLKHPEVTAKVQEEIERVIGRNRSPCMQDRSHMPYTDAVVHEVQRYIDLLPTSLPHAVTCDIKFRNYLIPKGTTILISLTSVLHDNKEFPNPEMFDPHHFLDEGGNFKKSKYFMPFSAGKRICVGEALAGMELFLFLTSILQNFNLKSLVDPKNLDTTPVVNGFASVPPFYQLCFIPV

On to `CC(=O)N1CCN(c2ccc(OCC3COC(Cn4ccnc4)(c4ccc(Cl)cc4Cl)O3)cc2)CC1` (stereo not drawn) [Ketoconazole, reference compound], for which the CYP inhibition at CYP2C19 was 99.5 and > 100; on CYP2C9, 100; at CYP1A2, 99.1.
